# According to ChEMBL document CHEMBL1773016, “Discovery and optimization of a series of benzothiazole phosphoinositide 3-kinase (PI3K)/mammalian target of rapamycin (mTOR) dual inhibitors” (J Med Chem, 2011):
# pIC50, pKi: −log10 of the molar value.
# Tests used:
# [1] = target: Phosphatidylinositol 4,5-bisphosphate 3-kinase catalytic subunit alpha isoform (Homo sapiens, UniProt P42336)
# Description: Inhibition of human PI3Kalpha expressed in Sf9 cells
# [2] = target: Serine/threonine-protein kinase mTOR (Homo sapiens, UniProt P42345)
# in vitro [3] = settings: human, liver microsomes
# Description: Clearance in human liver microsomes
# in vitro [4] = settings: rat, liver microsomes
# Description: Clearance in rat liver microsomes
# Sequence of Phosphatidylinositol 4,5-bisphosphate 3-kinase catalytic subunit alpha isoform (P42336 whole entry, canonical isoform): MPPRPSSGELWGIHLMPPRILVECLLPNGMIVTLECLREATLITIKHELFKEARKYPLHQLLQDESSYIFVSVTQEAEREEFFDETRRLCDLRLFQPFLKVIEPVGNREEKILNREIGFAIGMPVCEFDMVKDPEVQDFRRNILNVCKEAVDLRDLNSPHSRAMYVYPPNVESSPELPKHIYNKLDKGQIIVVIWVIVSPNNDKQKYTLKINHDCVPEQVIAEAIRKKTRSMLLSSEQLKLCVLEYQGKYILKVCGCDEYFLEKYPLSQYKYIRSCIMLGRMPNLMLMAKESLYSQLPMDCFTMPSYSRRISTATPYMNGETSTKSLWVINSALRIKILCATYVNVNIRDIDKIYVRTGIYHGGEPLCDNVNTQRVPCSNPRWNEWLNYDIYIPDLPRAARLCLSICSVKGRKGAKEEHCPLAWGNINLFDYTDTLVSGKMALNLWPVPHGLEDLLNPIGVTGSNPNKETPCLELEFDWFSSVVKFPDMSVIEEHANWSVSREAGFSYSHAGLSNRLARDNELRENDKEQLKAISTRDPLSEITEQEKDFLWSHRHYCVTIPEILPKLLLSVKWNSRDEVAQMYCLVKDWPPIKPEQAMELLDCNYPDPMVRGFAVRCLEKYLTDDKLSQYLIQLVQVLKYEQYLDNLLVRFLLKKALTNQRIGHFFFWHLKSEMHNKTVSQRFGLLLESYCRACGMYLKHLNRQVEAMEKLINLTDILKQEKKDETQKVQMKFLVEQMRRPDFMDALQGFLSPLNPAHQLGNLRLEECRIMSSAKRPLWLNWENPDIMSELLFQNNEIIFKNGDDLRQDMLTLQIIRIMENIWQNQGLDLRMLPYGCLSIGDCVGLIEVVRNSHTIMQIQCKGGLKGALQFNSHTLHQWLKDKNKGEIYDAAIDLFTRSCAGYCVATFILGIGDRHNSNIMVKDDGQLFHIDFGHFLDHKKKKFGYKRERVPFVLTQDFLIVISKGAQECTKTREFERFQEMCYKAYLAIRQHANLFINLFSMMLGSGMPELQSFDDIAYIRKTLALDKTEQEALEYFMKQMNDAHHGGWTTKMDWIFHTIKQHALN
pKi [1],pIC50 [2],microsomal CLint (in vitro [3]) [µL/min/mg],microsomal CLint (in vitro [4]) [µL/min/mg],Structure (SMILES)
7.74,< 5.22,–,–,COc1cccc(COc2nccc(-c3ccc4nc(NC(C)=O)sc4c3)n2)c1
–,7.54,–,–,COc1ccc(S(=O)(=O)Nc2cc(-c3ccc4nc(NC(C)=O)sc4c3)ccn2)cc1
–,< 5.22,–,–,CC(=O)Nc1nc2ccc(-c3ccnc(OCc4cccc(F)c4)n3)cc2s1
7.33,< 5.22,–,–,CC(=O)Nc1nc2ccc(-c3ccnc(OCc4cccc(C)c4)n3)cc2s1
–,< 5.22,–,–,CC(=O)Nc1nc2ccc(-c3ccnc(OCc4ccc(F)cc4)n3)cc2s1
7.24,< 5.22,–,–,CC(=O)Nc1nc2ccc(-c3ccnc(OCc4ccc(C)cc4)n3)cc2s1
7.24,< 5.22,–,–,COc1ccc(COc2nccc(-c3ccc4nc(NC(C)=O)sc4c3)n2)cc1
6.89,< 5.22,–,–,CC(=O)Nc1nc2ccc(-c3ccnc(OCc4ccncc4)n3)cc2s1
6.94,< 5.22,–,–,CC(=O)Nc1nc2ccc(-c3ccnc(OCCCc4ccncc4)n3)cc2s1
–,6.04,–,–,CC(=O)Nc1nc2ccc(-c3ccnc(OCCCc4cccnc4)n3)cc2s1
7.49,< 5.22,–,–,CC(=O)Nc1nc2ccc(-c3ccnc(OCCCc4ccccc4)n3)cc2s1
–,< 5.22,–,–,CC(=O)Nc1nc2ccc(-c3ccnc(OCCCN4CCOCC4)n3)cc2s1
–,< 5.22,–,–,CC(=O)Nc1nc2ccc(-c3ccnc(NC(C)(C)c4ccccc4)n3)cc2s1
5.50,< 5.22,–,–,COc1ccc(C(=O)Nc2nccc(-c3ccc4nc(NC(C)=O)sc4c3)n2)cc1
–,7.24,–,–,COc1ccc(S(=O)(=O)Nc2nccc(-c3ccc4nc(NC(C)=O)sc4c3)n2)cc1
7.12,6.55,> 399,> 399,COc1ccc(S(=O)(=O)N(C)c2nccc(-c3ccc4nc(NC(C)=O)sc4c3)n2)cc1
7.21,6.58,–,–,CCN(c1nccc(-c2ccc3nc(NC(C)=O)sc3c2)n1)S(=O)(=O)c1ccc(OC)cc1
7.39,7.35,–,–,CC(=O)Nc1nc2ccc(-c3ccnc(NS(=O)(=O)c4ccccc4F)n3)cc2s1
–,< 5.22,–,–,CC(=O)Nc1nc2ccc(-c3ccnc(N(C)S(=O)(=O)c4ccccc4F)n3)cc2s1
7.08,7.33,–,–,CC(=O)Nc1nc2ccc(-c3ccnc(NS(=O)(=O)c4cccc(F)c4)n3)cc2s1
6.08,6.14,–,–,CC(=O)Nc1nc2ccc(-c3ccnc(NS(=O)(=O)c4ccc(F)cc4)n3)cc2s1
7.09,7.19,–,–,CC(=O)Nc1nc2ccc(-c3ccnc(NS(=O)(=O)c4ccc(C)cc4)n3)cc2s1
–,6.57,579,> 399,CC(=O)Nc1nc2ccc(-c3ccnc(N(C)S(=O)(=O)c4ccc(C)cc4)n3)cc2s1
–,< 5.22,–,–,CC(=O)Nc1nc2ccc(-c3ccnc(Sc4ccccc4)n3)cc2s1
–,< 5.22,–,–,CC(=O)Nc1nc2ccc(-c3ccnc(SCc4ccccc4)n3)cc2s1
–,< 5.22,–,–,CC(=O)Nc1nc2ccc(-c3ccnc(Oc4ccccc4)n3)cc2s1
6.98,< 5.22,–,–,CC(=O)Nc1nc2ccc(-c3ccnc(OCc4ccccc4)n3)cc2s1
7.07,< 5.22,–,–,CC(=O)Nc1nc2ccc(-c3ccnc(NCc4ccccc4)n3)cc2s1

pKi [1],pIC50 [2],microsomal CLint (in vitro [3]) [µL/min/mg],microsomal CLint (in vitro [4]) [µL/min/mg],Structure (SMILES)
6.22,< 5.22,–,–,CC(=O)Nc1nc2ccc(-c3ccnc(Cc4ccccc4)n3)cc2s1
–,< 5.22,–,–,CC(=O)Nc1nc2ccc(-c3ccnc(CCc4ccccc4)n3)cc2s1
7.34,< 5.22,–,–,CC(=O)Nc1nc2ccc(-c3ccnc(Sc4ccccc4F)n3)cc2s1
7.51,< 5.22,–,–,CC(=O)Nc1nc2ccc(-c3ccnc(Sc4cccc(F)c4)n3)cc2s1
7.36,< 5.22,–,–,CC(=O)Nc1nc2ccc(-c3ccnc(Sc4ccc(F)cc4)n3)cc2s1
–,< 5.22,–,–,CC(=O)Nc1nc2ccc(-c3ccnc(Sc4ccccc4C)n3)cc2s1
7.28,< 5.22,–,–,CC(=O)Nc1nc2ccc(-c3ccnc(Sc4cccc(C)c4)n3)cc2s1
7.23,< 5.22,–,–,CC(=O)Nc1nc2ccc(-c3ccnc(Sc4ccc(C)cc4)n3)cc2s1
–,< 5.22,–,–,COc1ccccc1Sc1nccc(-c2ccc3nc(NC(C)=O)sc3c2)n1
7.32,< 5.22,–,–,COc1cccc(Sc2nccc(-c3ccc4nc(NC(C)=O)sc4c3)n2)c1
8.80,7.96,–,–,COc1ccc(S(=O)(=O)Nc2cncc(-c3ccc4nc(NC(C)=O)sc4c3)c2)cc1
8.05,7.82,–,–,COc1ccc(S(=O)(=O)Nc2cncc(-c3ccc4nc(NC(C)=O)sc4c3)n2)cc1
7.32,5.82,–,–,COc1ccc(S(=O)(=O)Nc2cccc(-c3ccc4nc(NC(C)=O)sc4c3)c2)cc1
8.85,8.80,–,–,COc1ccc(S(=O)(=O)Nc2cc(-c3ccc4nc(NC(C)=O)sc4c3)cnc2C#N)cc1
8.92,8.22,–,–,COc1ccc(S(=O)(=O)Nc2cc(-c3ccc4nc(NC(C)=O)sc4c3)cnc2C)cc1
> 9.00,8.68,42,> 399,COc1ccc(S(=O)(=O)Nc2cc(-c3ccc4nc(NC(C)=O)sc4c3)cnc2Cl)cc1
–,> 9.00,< 14,> 399,CC(=O)Nc1nc2ccc(-c3cnc(Cl)c(NS(=O)(=O)c4ccccc4)c3)cc2s1
> 9.00,> 9.00,< 14,500,CC(=O)Nc1nc2ccc(-c3cnc(Cl)c(NS(=O)(=O)c4ccccc4C(F)(F)F)c3)cc2s1
> 9.00,> 9.00,17,36,CC(=O)Nc1nc2ccc(-c3cnc(Cl)c(NS(=O)(=O)c4cccc(C(F)(F)F)c4)c3)cc2s1
> 9.00,8.80,< 14,< 14,CC(=O)Nc1nc2ccc(-c3cnc(Cl)c(NS(=O)(=O)c4ccc(C(F)(F)F)cc4)c3)cc2s1
> 9.00,> 9.00,< 14,> 399,CC(=O)Nc1nc2ccc(-c3cnc(Cl)c(NS(=O)(=O)c4ccccc4Cl)c3)cc2s1
> 9.00,> 9.00,16,> 399,CC(=O)Nc1nc2ccc(-c3cnc(Cl)c(NS(=O)(=O)c4cccc(Cl)c4)c3)cc2s1
> 9.00,> 9.00,< 14,< 14,CC(=O)Nc1nc2ccc(-c3cnc(Cl)c(NS(=O)(=O)c4ccc(Cl)cc4)c3)cc2s1
> 9.00,8.68,83,610,CC(=O)Nc1nc2ccc(-c3cnc(Cl)c(NS(=O)(=O)c4cccc(C(C)(C)C)c4)c3)cc2s1
> 9.00,8.68,135,460,CC(=O)Nc1nc2ccc(-c3cnc(Cl)c(NS(=O)(=O)c4ccc(C(C)(C)C)cc4)c3)cc2s1
> 9.00,8.96,< 14,320,CC(=O)Nc1nc2ccc(-c3cnc(Cl)c(NS(=O)(=O)c4ccccc4F)c3)cc2s1
8.96,8.64,< 14,> 399,CC(=O)Nc1nc2ccc(-c3cnc(Cl)c(NS(=O)(=O)c4cccc(F)c4)c3)cc2s1

Structure (SMILES),pKi [1],pIC50 [2],microsomal CLint (in vitro [3]) [µL/min/mg],microsomal CLint (in vitro [4]) [µL/min/mg]
COc1ccc(Sc2nccc(-c3ccc4nc(NC(C)=O)sc4c3)n2)cc1,7.74,5.52,–,–
